Laboratory results as given in US11377442B2, “Small molecule agonists and antagonists of NR2F6 activity” (ZANDER THERAPEUTICS, INC., priority 2016, dated 2022).
Values after ≈ are worked out from the molar mass of the structure shown. Values joined by “and” are separate entries in the source; they are usually repeats but may differ in a detail not shown here. Equal values may be shown once. Read-outs that look alike come from different tables or passages of the source.

What was measured:
[1] = Microsomal stability in mouse liver microsomes; type: in vitro ADME
hCyt P450 [2] = biological target: T1, hCyt P450 (Homo sapiens, UniProt P05177); assay: CYP inhibition; type: in vitro ADME; conditions: CYP 1A2-Phenacetin
T1 sequence (P05177 1-516): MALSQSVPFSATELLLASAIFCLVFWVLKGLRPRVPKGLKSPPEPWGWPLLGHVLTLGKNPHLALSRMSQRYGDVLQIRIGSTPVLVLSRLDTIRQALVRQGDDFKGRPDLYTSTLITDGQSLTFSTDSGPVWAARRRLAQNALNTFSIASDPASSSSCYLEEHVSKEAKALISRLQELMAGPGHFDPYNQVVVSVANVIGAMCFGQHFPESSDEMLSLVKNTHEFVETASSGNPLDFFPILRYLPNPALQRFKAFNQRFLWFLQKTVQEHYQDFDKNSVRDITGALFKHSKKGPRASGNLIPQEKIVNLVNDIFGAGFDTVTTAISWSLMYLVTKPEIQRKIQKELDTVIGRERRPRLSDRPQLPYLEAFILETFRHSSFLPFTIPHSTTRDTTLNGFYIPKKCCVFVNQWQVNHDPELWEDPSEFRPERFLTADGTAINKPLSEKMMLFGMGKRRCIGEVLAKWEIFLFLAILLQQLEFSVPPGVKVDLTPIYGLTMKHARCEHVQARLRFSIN

hCyt P450 [3] = biological target: T2, hCyt P450 (Homo sapiens, UniProt P10632); assay: CYP inhibition; type: in vitro ADME; conditions: CYP 2C8-Amodiaquine
T2 sequence (P10632 1-490): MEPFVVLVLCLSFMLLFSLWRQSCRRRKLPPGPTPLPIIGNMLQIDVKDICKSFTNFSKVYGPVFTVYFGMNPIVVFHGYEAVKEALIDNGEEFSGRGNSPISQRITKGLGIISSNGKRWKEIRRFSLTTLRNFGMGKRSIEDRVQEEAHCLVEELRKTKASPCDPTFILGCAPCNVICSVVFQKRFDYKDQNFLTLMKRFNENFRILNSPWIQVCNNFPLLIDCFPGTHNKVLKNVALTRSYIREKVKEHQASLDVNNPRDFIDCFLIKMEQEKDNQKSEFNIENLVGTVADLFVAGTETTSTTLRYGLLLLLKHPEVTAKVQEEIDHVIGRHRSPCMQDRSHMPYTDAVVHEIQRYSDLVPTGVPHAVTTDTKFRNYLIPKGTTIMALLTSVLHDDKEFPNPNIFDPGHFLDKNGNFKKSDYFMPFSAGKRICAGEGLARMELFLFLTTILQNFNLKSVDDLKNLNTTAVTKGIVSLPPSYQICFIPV

Caco-2 = Caco-2 permeability assay; type: in vitro ADME
Protocol: (§1) A Caco-2 permeability assay was performed on Compound D136.

[4] = Caco-2 permeability assay; type: in vitro ADME; conditions: human
Protocol: as §1

Stability in rat plasma = type: in vitro ADME
[5] = Microsomal stability in rat liver microsomes; type: in vitro ADME
PPB = type: in vitro ADME; conditions: for recovery: plasma
PK in rat plasma = type: in vivo; conditions: for Fabs, %: PO 7.53 mg/kg vs IV 1.13 mg/kg
PK in mice plasma = type: in vivo; conditions: for Fabs, %: PO 3.18 mg/kg vs IV 1.12 mg/kg; for Vd: plasma, iv
[6] = Stability in human plasma; type: in vitro ADME
[7] = Microsomal stability in human liver microsomes; type: in vitro ADME
[8] = mouse, in vivo
pH solubility = type: physicochemical; conditions: for solubility: aqueous buffer, OD 250 nm
P-gp (MDR1) = biological target: T3, P-gp (MDR1) (Homo sapiens, UniProt P08183); assay: Caco-2 asymmetry, P-gp substrate; type: in vitro ADME
T3 construct: endogenous in cells; host or cells: Caco-2
Protocol: as §1

[9] = Table 36, PO plasma, 7.53 mg/kg
[10] = Table 38, IV plasma, 1.13 mg/kg
[11] = rat, Table 36, PO plasma, 7.53 mg/kg
[12] = rat, Table 38, IV plasma, 1.13 mg/kg
[13] = Table 39, PO plasma, 3.18 mg/kg
[14] = Table 41, IV plasma, 1.12 mg/kg
[15] = mouse, Table 39, PO plasma, 3.18 mg/kg
[16] = mouse, Table 41, IV plasma, 1.12 mg/kg

T3 sequence (P08183 whole entry): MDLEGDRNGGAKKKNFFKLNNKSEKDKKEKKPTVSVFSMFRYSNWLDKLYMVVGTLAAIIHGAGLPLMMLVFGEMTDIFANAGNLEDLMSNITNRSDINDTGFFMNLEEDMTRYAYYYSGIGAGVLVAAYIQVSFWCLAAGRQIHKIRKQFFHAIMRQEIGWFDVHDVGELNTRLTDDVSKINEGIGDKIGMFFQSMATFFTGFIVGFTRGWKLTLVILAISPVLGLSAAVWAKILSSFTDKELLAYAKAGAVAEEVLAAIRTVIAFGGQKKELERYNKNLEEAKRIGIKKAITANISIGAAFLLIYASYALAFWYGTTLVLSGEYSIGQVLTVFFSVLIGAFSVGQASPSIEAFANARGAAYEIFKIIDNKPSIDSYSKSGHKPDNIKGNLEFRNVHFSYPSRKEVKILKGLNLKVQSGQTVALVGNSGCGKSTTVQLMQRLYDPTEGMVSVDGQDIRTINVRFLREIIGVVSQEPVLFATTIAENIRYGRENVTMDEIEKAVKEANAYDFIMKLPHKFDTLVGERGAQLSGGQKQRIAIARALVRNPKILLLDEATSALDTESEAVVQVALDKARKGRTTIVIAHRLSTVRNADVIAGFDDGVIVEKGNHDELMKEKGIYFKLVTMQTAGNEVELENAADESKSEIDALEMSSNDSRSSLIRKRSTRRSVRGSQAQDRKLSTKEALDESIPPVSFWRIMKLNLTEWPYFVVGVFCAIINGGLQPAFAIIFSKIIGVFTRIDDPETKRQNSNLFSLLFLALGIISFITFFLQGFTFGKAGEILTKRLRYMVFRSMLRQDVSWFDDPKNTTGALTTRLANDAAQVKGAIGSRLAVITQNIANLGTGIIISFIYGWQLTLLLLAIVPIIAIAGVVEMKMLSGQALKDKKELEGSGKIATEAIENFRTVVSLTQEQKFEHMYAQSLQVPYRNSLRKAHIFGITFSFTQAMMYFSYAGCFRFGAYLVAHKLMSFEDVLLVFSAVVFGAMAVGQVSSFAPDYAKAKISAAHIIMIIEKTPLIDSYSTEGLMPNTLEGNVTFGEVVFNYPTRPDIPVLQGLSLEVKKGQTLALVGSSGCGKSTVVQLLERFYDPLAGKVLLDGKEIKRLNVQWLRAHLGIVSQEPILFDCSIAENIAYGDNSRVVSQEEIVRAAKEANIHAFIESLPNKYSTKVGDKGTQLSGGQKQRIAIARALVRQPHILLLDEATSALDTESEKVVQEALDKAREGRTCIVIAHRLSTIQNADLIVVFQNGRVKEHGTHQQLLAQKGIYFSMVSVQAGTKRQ

COCCN[C@H]1CS(=O)(=O)C[C@@H]1S(=O)(=O)c1ccc(Cl)cc1 [Compound D136]
stability in presence of mouse liver microsomes [1]: Extremely stable | CYP inhibition conclusion (hCyt P450 [2]): no inhi- | IC50 (hCyt P450 [2]): > 10 µM | CYP inhibition conclusion (hCyt P450 [3]): no inhi- | IC50 (hCyt P450 [3]): > 10 µM | Caco-2 permeability (Caco-2): highly permeable | Papp A-B (Caco-2; individual replicates): 36.0 10^−6 cm/s and 33.1 10^−6 cm/s | Papp B-A (Caco-2; individual replicates): 54.6 10^−6 cm/s and 50.9 10^−6 cm/s | Papp A→B ([4]; Caco-2, Mean): 34.2 ×10⁻⁶ cm/s | Papp B→A ([4]; Caco-2, Mean): 51.1 ×10⁻⁶ cm/s | Papp A→B ([4]; Caco-2, individual replicates): 33.6 ×10⁻⁶ cm/s | Papp B→A ([4]; Caco-2, individual replicates): 47.9 ×10⁻⁶ cm/s | stability in rat plasma (Stability in rat plasma): Stable | stability in presence of rat liver microsomes [5]: Extremely stable | %, Bound (PPB; Human): 51.6% | %, Free (50% pI) (PPB; Human): 65.3% | %, Free (recalc from 50% pI) (PPB; Human): 48.4% | Permeability, % (PPB; Human): 94% | %, Bound (PPB; Rat): 52.0% | %, Free (50% pI) (PPB; Rat): 64.9% | %, Free (recalc from 50% pI) (PPB; Rat): 48.0% | Permeability, % (PPB; Rat): 94% | recovery (PPB; human): 56.9% | recovery (PPB; rat): 122% | K el (PK in rat plasma; [9]): 0.75 h⁻¹ | T_½ (PK in rat plasma; [9]): 55.8 min | AUV last (PK in rat plasma; Table 37, IV plasma, 1.13 mg/kg): 239 | AUV last (PK in rat plasma; Table 37, PO plasma, 7.53 mg/kg): 197 | Fabs, % (PK in rat plasma; Table 37, from AUCinf): 12.9% | Fabs, % (PK in rat plasma; Table 37, from AUV last): 12.3% | Cl/F (PK in rat plasma; [10]): 80.23 mL/min/kg | K el (PK in rat plasma; [10]): 2.11 h⁻¹ | T_½ (PK in rat plasma; [10]): 19.8 min | bioavailability (PK in rat plasma; plasma, po, PK in mouse and dog, species of the value not stated, read-out: orally bioavailable (absorbance)): ~33% | AUC(0-inf) (PK in rat plasma; [11]): 208 ng·h/mL | AUC(0-t) (PK in rat plasma; [11]): 197 ng·h/mL | CL/F (PK in rat plasma; [11]): 866 mL/min/kg | Cmax (PK in rat plasma; [11]): 165 ng/mL | MRT inf (PK in rat plasma; [11]): 79.8 min | MRT last (PK in rat plasma; [11]): 67.8 min | Tmax (PK in rat plasma; [11]): 30 min | Vd/F (PK in rat plasma; rat, Table 36, PO plasma, 7.53 mg/kg, read-out: Vz/F): 66.3 L/kg | AUC(0-inf) (PK in rat plasma; rat, Table 37, IV plasma, 1.13 mg/kg): 242 ng·h/mL | AUC(0-t) (PK in rat plasma; [12]): 239 ng·h/mL | Cmax (PK in rat plasma; [12]): 524 ng/mL | MRT inf (PK in rat plasma; [12]): 22.2 min | MRT last (PK in rat plasma; [12]): 21 min | Tmax (PK in rat plasma; [12]): 4.98 min | K el (PK in mice plasma; [13]): 1.2 h⁻¹ | T_½ (PK in mice plasma; [13]): 34.8 min | AUV last (PK in mice plasma; Table 40, IV plasma, 1.12 mg/kg): 124 | AUV last (PK in mice plasma; Table 40, PO plasma, 3.18 mg/kg): 116 | Fabs, % (PK in mice plasma; Table 40, from AUCinf): 33.2% | Fabs, % (PK in mice plasma; Table 40, from AUV last): 33.0% | K el (PK in mice plasma; [14]): 1.16 h⁻¹ | T_½ (PK in mice plasma; [14]): 36 min | Vd (PK in mice plasma; mouse, 1.12 mg/kg, Table 41, IV plasma, 1.12 mg/kg, read-out: Vss): 2.41 L/kg | Vd (PK in mice plasma; mouse, 1.12 mg/kg, Table 41, IV plasma, 1.12 mg/kg, read-out: Vz): 7.74 L/kg | AUC(0-inf) (PK in mice plasma; [15]): 117 ng·h/mL | AUC(0-t) (PK in mice plasma; [15]): 116 ng·h/mL | CL/F (PK in mice plasma; [15]): 452 mL/min/kg | Cmax (PK in mice plasma; [15]): 89.6 ng/mL | MRT inf (PK in mice plasma; [15]): 64.8 min | MRT last (PK in mice plasma; [15]): 62.4 min | Tmax (PK in mice plasma; [15]): 15 min | Vd/F (PK in mice plasma; mouse, Table 39, PO plasma, 3.18 mg/kg, read-out: Vz/F): 22.5 L/kg | AUC(0-inf) (PK in mice plasma; mouse, Table 40, IV plasma, 1.12 mg/kg): 124 ng·h/mL | AUC(0-t) (PK in mice plasma; [16]): 124 ng·h/mL | C0 (PK in mice plasma; [16]): 770 ng/mL | Cmax (PK in mice plasma; [16]): 390 ng/mL | MRT inf (PK in mice plasma; [16]): 16.2 min | MRT last (PK in mice plasma; [16]): 15 min | Tmax (PK in mice plasma; [16]): 4.98 min | clearance (PK in mice plasma; [16]): 150 mL/min/kg | stability in human plasma [6]: Stable | stability in presence of human liver microsomes [7]: Extremely stable | MTD and acute toxicity [8]: no toxicity was observed | solubility (pH solubility; pH 2): 660 µg/mL (≈ 1790 µM) | solubility (pH solubility; pH 4): 220 µg/mL (≈ 598 µM) | solubility (pH solubility; pH 7): 190 µg/mL (≈ 516 µM) | solubility at pH2 (pH solubility; pH2): soluble | solubility at pH4 (pH solubility; pH4): soluble | solubility at pH7.4 (pH solubility; pH7.4): soluble | substrate for P-gp (MDR1) (P-gp (MDR1); Caco-2 asymmetry): not a substrate | efflux ratio (P-gp (MDR1); human, Caco-2, Mean Papp B-A / A-B, read-out: Asymmetry Index): 1.5
